Test results taken from US20060165803A1, “Pharmaceutical compositions of sertaconazole for vaginal use” (priority 2002, published 2006).

Tests used:
[1] = test system: reconstituted vaginal epithelial cells; assay: In vitro permeation test through reconstituted vaginal epithelium, Franz cell; assay type: in vitro ADME; details: reconstituted human vaginal epithelium, phosphate buffer pH 7.4, 32° C.
Procedure: The in vitro dissolution and transdermal permeation tests of sertaconazole nitrate from the cream formulations of Example 1 were evaluated in comparison with a conventional cream formulation of 2% sertaconazole nitrate.
Both tests were carried out with Franz cell-type diffusion systems, with a diffusional area of 2.54 cm^2. 1 ml of cream was placed in the donor compartment and 11 ml of a suitable receptor medium were placed in the receptor compartment. For the dissolution test, a 0.45-μm Millipore membrane of nylon esters was used, and the receptor medium was made up of a mixture of ethanol-water (1:1). Vaginal epithelium was used as permeation membrane and phosphate buffer solution at pH 7.4 was used as the receptor medium.
The 4-cm^2 membranes used in the permeation test were formed by reconstituted vaginal epithelial cells (5-day culture) from transformed cells of human vaginal epithelium on polycarbonate support. These cells were obtained from cell lines of vulvar epidermoid carcinomas. The test temperature was 32° C. for both cases.

C. albicans [2] = details: C. albicans (73); cited from earlier work
C. tropicalis = C. tropicalis (21); cited from earlier work
C. glabrata = C. glabrata (16); cited from earlier work
C. parapsilosis = C. parapsilosis (22); cited from earlier work
C. krusei = C. krusei (13); cited from earlier work
C. guillermondii = C. guillermondii (5); cited from earlier work
C. albicans [3] = details: against C. albicans; cited from earlier work

Row | Structure (SMILES) | absorption (permeation) through the vaginal mucosa [1] | minimum inhibitory concentration (MIC) (C. albicans [2]) | minimum inhibitory concentration (MIC) (C. tropicalis) | minimum inhibitory concentration (MIC) (C. glabrata) | minimum inhibitory concentration (MIC) (C. parapsilosis) | minimum inhibitory concentration (MIC) (C. krusei) | minimum inhibitory concentration (MIC) (C. guillermondii) | fungicide activity compared with imidazole antifungal drugs (C. albicans [3])
1 | Clc1ccc(C(Cn2ccnc2)OCc2csc3c(Cl)cccc23)c(Cl)c1 (centres unmarked) [Sertaconazole, sertaconazole] | less than 0.1 % of the dose | 1.02 | 1.67 | 0.78 | 0.31 | 0.38 | 0.51 | superior to most imidazole antifungal drugs
2 | c1ccc(-c2ccc(C(c3ccccc3)n3ccnc3)cc2)cc1 (centres unmarked) [Bifonazole, bifonazole] |  | 3.6 | 9.51 | 4.09 | 3.76 | 2.20 | 3.87 | 
3 | Clc1ccc(COC(Cn2ccnc2)c2ccc(Cl)cc2Cl)cc1 (centres unmarked) [Econazole, econazole] |  | 2.24 | 3.14 | 2.39 | 0.75 | 0.91 | 1.11 | 
